# Reference: patent US20130158362A1 (INFACARE PHARMACEUTICAL CORPORATION, priority 2011, published 2013)
# Test system: total serum bilirubin (TSB)
# Experiment: Phase 2b trial: total serum bilirubin (TSB), adjusted and unadjusted, change from baseline
# Format: in vivo, human
# Parameters: total serum bilirubin / total serum bilirubin, Delta (change from baseline) / Change from baseline of total serum bilirubin: unit not given here
# Details: for total serum bilirubin / total serum bilirubin, Delta (change from baseline): 48 hours, preliminary data; for change from baseline in adjusted TSB, LS mean difference versus placebo, MMRM / change from baseline in adjusted TSB, LS means (SEM), MMRM: observed case
# Procedure: Three cohorts of subjects were recruited. This clinical study was designed to evaluate safety and efficacy parameters in each cohort.
# Scheduled assessments (including TSB) occurred before treatment and at 0.75 and 2 hours (or 1.5 and 3 hours, depending on PK blood sampling assignment); 6, 12, 24, 48, and 72 hours; and 14 and 30 (except TSB) days after treatment or early termination.
# The primary efficacy endpoint was the change in adjusted TSB from baseline to 48 hours after treatment. The adjusted TSB was a calculation of the percentage variance of the TSB level from the age specific threshold for PT initiation per the AAP Guidelines, i.e., an indication of the distance below the PT threshold by time.
# The Secondary Efficacy Endpoints were the change from baseline in unadjusted TSB at 48 hours after treatment, change from baseline in adjusted and unadjusted TSB at various other time points after treatment, percent change from baseline in unadjusted TSB, proportion of subjects who require PT/exchange transfusion (ET), time to PT/ET, duration of PT and time to hospital discharge.
# Intent-to-treat population (ITT): Defined as all subjects who were randomly assigned treatment in the clinical study, had received IMP, and had at least 1 post baseline TSB measurement during the first 48 hours after treatment. Subjects were summarized based on randomized treatment.
# Analysis of Efficacy Parameters: The primary efficacy analysis applied the analysis of covariance (ANCOVA) method to determine if there was a significant difference between treatment groups in change in adjusted TSB levels from baseline to 48 hours post baseline after controlling for the effects of gestational age and adjusted baseline TSB levels. If assumptions of ANCOVA appeared to be violated, a Wilcoxon rank-sum test could be performed instead. Time-to-event variables were analyzed using the Kaplan-Meier method, and Kaplan-Meier survival curves were presented.
# [1] = 1.5 mg/kg IM, 6 h, ITT, LOCF, ANCOVA
# [2] = 1.5 mg/kg IM, 12 h, ITT, LOCF, ANCOVA
# [3] = 1.5 mg/kg IM, 24 h, ITT, LOCF, ANCOVA
# [4] = 1.5 mg/kg IM, 48 h/early termination, ITT, LOCF
# [5] = 1.5 mg/kg IM, 48 h, ITT, LOCF, ANCOVA
# [6] = 1.5 mg/kg IM, 72 h, ITT, LOCF, ANCOVA
# [7] = 1.5 mg/kg IM, 14 days/early termination, ITT, LOCF
# [8] = 1.5 mg/kg IM, 14 days/early termination, ITT, LOCF, ANCOVA
# [9] = 1.5 mg/kg versus the placebo group, 48 Hours/Early termination, PP Population, ANCOVA
# [10] = 1.5 mg/kg, 48 Hours/Early termination, PP Population, LOCF
# [11] = 1.5 mg/kg, 6 hrs, unadjusted TSB, ITT Population
substance,measurement,setting,value
tin IV mesoporphyrin IX dichloride [Stannsoporfin],total serum bilirubin,"1.5 mg/kg IM (N = 10), treated per protocol",10.96 ± 1.8
same,"adjusted TSB, Mean (SD)","1.5 mg/kg IM, 6 h, ITT, LOCF",−17.77 (13.326) %
same,"change from baseline in adjusted TSB, Mean (SD)","1.5 mg/kg IM, 6 h, ITT, LOCF",2.47 (7.928) %
same,"change from baseline in adjusted TSB, Median","1.5 mg/kg IM, 6 h, ITT, LOCF",2.80%
same,"change from baseline in unadjusted TSB, Mean (SD)","1.5 mg/kg IM, 6 h, ITT, LOCF",1.50 (0.861) mg/dL
same,"change from baseline in unadjusted TSB, Median","1.5 mg/kg IM, 6 h, ITT, LOCF",1.50 mg/dL
same,"unadjusted TSB, Mean (SD)","1.5 mg/kg IM, 6 h, ITT, LOCF",9.09 (2.175) mg/dL
same,"unadjusted TSB, Median","1.5 mg/kg IM, 6 h, ITT, LOCF",9.60 mg/dL
same,"change from baseline in adjusted TSB, LS mean (SEM)",[1],2.72 (2.053) %
same,"change from baseline in adjusted TSB, LS mean difference versus placebo",[1],−1.67%
same,"change from baseline in unadjusted TSB, LS Mean (SEM)",[1],1.38 (0.242) mg/dL
same,"change from baseline in unadjusted TSB, LS Mean Difference versus placebo",[1],-0.21 mg/dL
same,"change from baseline in adjusted TSB, LS mean difference versus placebo, MMRM","1.5 mg/kg IM, 6 h, ITT",−1.44%
same,"change from baseline in adjusted TSB, LS means (SEM), MMRM","1.5 mg/kg IM, 6 h, ITT",2.94 (2.098) %
same,"adjusted TSB, Mean (SD)","1.5 mg/kg IM, 12 h, ITT, LOCF",−17.41 (17.294) %
same,"change from baseline in adjusted TSB, Mean (SD)","1.5 mg/kg IM, 12 h, ITT, LOCF",2.83 (12.949) %
same,"change from baseline in adjusted TSB, Median","1.5 mg/kg IM, 12 h, ITT, LOCF",5.70%
same,"change from baseline in unadjusted TSB, Mean (SD)","1.5 mg/kg IM, 12 h, ITT, LOCF",2.22 (1.624) mg/dL
same,"change from baseline in unadjusted TSB, Median","1.5 mg/kg IM, 12 h, ITT, LOCF",2.50 mg/dL
same,"unadjusted TSB, Mean (SD)","1.5 mg/kg IM, 12 h, ITT, LOCF",9.82 (2.599) mg/dL
same,"unadjusted TSB, Median","1.5 mg/kg IM, 12 h, ITT, LOCF",10.20 mg/dL
same,"change from baseline in adjusted TSB, LS mean (SEM)",[2],4.54 (3.015) %
same,"change from baseline in adjusted TSB, LS mean difference versus placebo",[2],−2.59%
same,"change from baseline in unadjusted TSB, LS Mean (SEM)",[2],2.21 (0.374) mg/dL
same,"change from baseline in unadjusted TSB, LS Mean Difference versus placebo",[2],-0.39 mg/dL
same,"change from baseline in adjusted TSB, LS mean difference versus placebo, MMRM","1.5 mg/kg IM, 12 h, ITT",−2.67%
same,"change from baseline in adjusted TSB, LS means (SEM), MMRM","1.5 mg/kg IM, 12 h, ITT",3.29 (2.731) %
same,"adjusted TSB, Mean (SD)","1.5 mg/kg IM, 24 h, ITT, LOCF",−24.44 (18.927) %
same,"change from baseline in adjusted TSB, Mean (SD)","1.5 mg/kg IM, 24 h, ITT, LOCF",−4.20 (16.064) %
same,"change from baseline in adjusted TSB, Median","1.5 mg/kg IM, 24 h, ITT, LOCF",−4.30%
same,"change from baseline in unadjusted TSB, Mean (SD)","1.5 mg/kg IM, 24 h, ITT, LOCF",2.24 (2.084) mg/dL
same,"change from baseline in unadjusted TSB, Median","1.5 mg/kg IM, 24 h, ITT, LOCF",2.70 mg/dL
same,"unadjusted TSB, Mean (SD)","1.5 mg/kg IM, 24 h, ITT, LOCF",9.84 (2.656) mg/dL
same,"unadjusted TSB, Median","1.5 mg/kg IM, 24 h, ITT, LOCF",10.80 mg/dL
same,"change from baseline in adjusted TSB, LS mean (SEM)",[3],−7.62 (4.320) %
same,"change from baseline in adjusted TSB, LS mean difference versus placebo",[3],−7.53%
same,"change from baseline in unadjusted TSB, LS Mean (SEM)",[3],1.98 (0.549) mg/dL
same,"change from baseline in unadjusted TSB, LS Mean Difference versus placebo",[3],-0.76 mg/dL
same,"change from baseline in adjusted TSB, LS mean difference versus placebo, MMRM","1.5 mg/kg IM, 24 h, ITT",−3.77%
same,"change from baseline in adjusted TSB, LS means (SEM), MMRM","1.5 mg/kg IM, 24 h, ITT",−5.33 (3.948) %
same,"adjusted TSB, Mean (SD)",[4],−35.09 (19.198) %
same,"adjusted TSB, Median",[4],−27.10%
same,"change from baseline in adjusted TSB, Mean (SD)","1.5 mg/kg IM, 48 h, ITT, LOCF",−14.85 (15.442) %
same,"change from baseline in adjusted TSB, Median","1.5 mg/kg IM, 48 h, ITT, LOCF",−12.30%
same,"change from baseline in unadjusted TSB, Mean (SD)","1.5 mg/kg IM, 48 h, ITT, LOCF",2.32 (2.560) mg/dL
same,"change from baseline in unadjusted TSB, Median","1.5 mg/kg IM, 48 h, ITT, LOCF",2.70 mg/dL
same,"unadjusted TSB, Mean (SD)","1.5 mg/kg IM, 48 h, ITT, LOCF",9.91 (3.116) mg/dL
same,"unadjusted TSB, Median","1.5 mg/kg IM, 48 h, ITT, LOCF",10.90 mg/dL
same,"change from baseline in adjusted TSB, LS mean (SEM) (primary endpoint)",[5],−15.03 (5.273) %
same,"change from baseline in adjusted TSB, LS mean difference versus placebo",[5],−13.45%
same,"change from baseline in unadjusted TSB, LS Mean (SEM)",[5],2.43 (0.842) mg/dL
same,"change from baseline in unadjusted TSB, LS Mean Difference versus placebo",[5],-1.81 mg/dL
same,"change from baseline in adjusted TSB, LS mean (SEM) (primary endpoint)","1.5 mg/kg IM, 48 h, ITT, LOCF, ANCOVA, listed as stannsoporfin",15.0%
same,"change from baseline in adjusted TSB, LS mean difference versus placebo, MMRM","1.5 mg/kg IM, 48 h, ITT",−8.26%
same,"change from baseline in adjusted TSB, LS means (SEM), MMRM","1.5 mg/kg IM, 48 h, ITT",−14.94 (5.019) %
same,total serum bilirubin,"1.5 mg/kg IM, intent to treat",9.91 ± 3.1
same,"total serum bilirubin, Delta (change from baseline)","1.5 mg/kg IM, intent to treat",2.32 ± 2.5
same,"total serum bilirubin, Delta (change from baseline)","1.5 mg/kg IM, treated per protocol",3.44 ± 1.5
same,"adjusted TSB, Mean (SD)","1.5 mg/kg IM, 72 h/early termination, ITT, LOCF",−44.82 (19.254) %
same,"change from baseline in adjusted TSB, Mean (SD)","1.5 mg/kg IM, 72 h, ITT, LOCF",−24.58 (15.743) %
same,"change from baseline in adjusted TSB, Median","1.5 mg/kg IM, 72 h, ITT, LOCF",−22.10%
same,"change from baseline in unadjusted TSB, Mean (SD)","1.5 mg/kg IM, 72 h, ITT, LOCF",1.76 (2.790) mg/dL
same,"change from baseline in unadjusted TSB, Median","1.5 mg/kg IM, 72 h, ITT, LOCF",2.40 mg/dL
same,"unadjusted TSB, Mean (SD)","1.5 mg/kg IM, 72 h, ITT, LOCF",9.35 (3.409) mg/dL
same,"unadjusted TSB, Median","1.5 mg/kg IM, 72 h, ITT, LOCF",10.60 mg/dL
same,"change from baseline in adjusted TSB, LS mean (SEM)",[6],−21.94 (6.232) %
same,"change from baseline in adjusted TSB, LS mean difference versus placebo",[6],−17.19%
same,"change from baseline in unadjusted TSB, LS Mean (SEM)",[6],2.43 (1.077) mg/dL
same,"change from baseline in unadjusted TSB, LS Mean Difference versus placebo",[6],-2.52 mg/dL
same,"change from baseline in unadjusted TSB, Mean (SD)",[7],−4.08 (2.322) mg/dL
same,"change from baseline in unadjusted TSB, Median",[7],-4.00 mg/dL
same,"unadjusted TSB, Mean (SD)",[7],3.52 (2.751) mg/dL
same,"unadjusted TSB, Median",[7],2.80 mg/dL
same,"change from baseline in unadjusted TSB, LS Mean (SEM)",[8],−4.04 (1.258) mg/dL
same,"change from baseline in unadjusted TSB, LS Mean Difference versus placebo",[8],-1.74 mg/dL
same,"48 Hours/Early termination change from baseline in unadjusted TSB, LS mean difference",[9],-0.97 mg/dL
same,"P-value of LS mean difference, change from baseline in unadjusted TSB",[9],0.338
same,"48 Hours/Early termination change from baseline in unadjusted TSB, Max",[10],5.2 mg/dL
same,"48 Hours/Early termination change from baseline in unadjusted TSB, Mean (SD)",[10],3.44 (1.458) mg/dL
same,"48 Hours/Early termination change from baseline in unadjusted TSB, Median",[10],3.40 mg/dL
same,"48 Hours/Early termination change from baseline in unadjusted TSB, Min",[10],0.7 mg/dL
same,"48 Hours/Early termination unadjusted TSB, Max",[10],12.8 mg/dL
same,"48 Hours/Early termination unadjusted TSB, Mean (SD)",[10],10.96 (1.842) mg/dL
same,"48 Hours/Early termination unadjusted TSB, Median",[10],11.35 mg/dL
same,"48 Hours/Early termination unadjusted TSB, Min",[10],6.8 mg/dL
same,"48 Hours/Early termination change from baseline in unadjusted TSB, LS mean (SEM)","1.5 mg/kg, 48 Hours/Early termination, PP Population, LOCF, ANCOVA",2.96 (0.868) mg/dL
same,"6 hrs Percent Change from Baseline in TSB, Max",[11],42.0%
same,"6 hrs Percent Change from Baseline in TSB, Mean (SD)",[11],20.13 (12.268) %
same,"6 hrs Percent Change from Baseline in TSB, Min",[11],−1.7%
same,"6 hrs TSB, Max",[11],14.1 mg/dL
